Reference: US20250241879A1, “CAPSAICIN SEQUENTIAL DOSING METHOD FOR TREATMENT OF KNEE JOINT PAIN” (priority 2018, published 2025)

Legend:
[1] = tested on: osteoarthritic knee joint pain; assay: WOMAC C function subscale (Example 2); format: in vivo, human; details: 1.0 mg dose; through week 16; P=0.02
Protocol: (§1) Human patients aged 45-80 years with chronic knee osteoarthritis, stable moderate to severe pain, and intolerability to analgesics were randomized to receive a single intra-articular injection of placebo into the osteoarthritic knee, a single intra-articular injection of a 0.5 mg dose of capsaicin into the osteoarthritic knee, or a single intra-articular injection of a 1.0 mg dose of capsaicin into the osteoarthritic knee.
(§2) Patients completed Patient Global Impression of Change (PGIC; change vs baseline in index knee on 7-point scale: 1=very much improved; 7=very much worse, with scores of 1 or 2 indicating significant improvement) and Patient-specific Functional Scale (PSFS; rate≤3 important activities difficult to perform due to index knee pain on 0-10 scale: 0=able to perform; 10=unable to perform) at scheduled visits. Odds ratios for PGIC scores were calculated with chi-square tests. Changes in Western Ontario and McMaster Universities Osteoarthritis Index (WOMAC) B stiffness subscale and WOMAC C function subscale through week 24 were also assessed. PSFS, WOMAC B, and WOMAC C scores were evaluated using a mixed model for repeated measures. Statistical tests were 2-sided (alpha, P=0.10).

[2] = tested on: osteoarthritic knee joint pain; assay: Patient Global Impression of Change (PGIC), index knee (Example 2); format: in vivo, human; details: for PGIC: proportion of patients reporting significant improvement in the index knee: week 4, placebo 44%
Protocol: as §1, §2

[3] = tested on: human patients with chronic knee osteoarthritis; assay: Procedural pain ratings (none, mild, moderate, moderately severe, severe) after intra-articular injection (Example 2); format: in vivo; details: 2 hours after injection of capsaicin (or placebo); all groups
Excerpt: (§3) Safety assessments included treatment-emergent adverse events (TEAEs), serious AEs (SAEs), laboratory abnormalities, and procedural pain ratings (none, mild, moderate, moderately severe, severe). The procedure pain ratings characterize the extent of transient burning sensation experienced by patients due to administration of capsaicin.

[4] = tested on: human patients with bilateral knee osteoarthritis; assay: Procedure pain (NPRS) due to intraarticular trans-capsaicin, Breg pad vs ice pack cooling (Example 7); format: in vivo; details: Breg Knee WrapOn Polar Pad cooling compared to ice-pack cooling (Example 7)
Protocol: Human patients experiencing osteoarthritic knee joint pain were subjected to two different protocols for intraarticular administration of trans-capsaicin. Temporary pain expected due to administration of capsaicin was analyzed, along with the intraarticular temperature of the knee joint and the temperature of the patient's skin in the area to be cooled.
(§4) One of the protocols utilized a Breg Knee WrapOn Polar Pad (as illustrated in FIG. 1) that utilizes circulating ice-water to achieve cooling, where the pad is placed on skin surrounding the knee in order to cool the knee joint. The other protocol utilized ice-pack cooling, in which the patient's knee was wrapped with a stockinette and then the ice pack was positioned on top of the stockinette so that the ice pack is positioned over the patient's patella to thereby cool the knee joint. The ice pack was a LEADSTAR pain relief reusable cold therapy ice pack (size=6 inches). A temperature probe was placed into the intraarticular space of the patient's knee joint to measure intraarticular temperature of the knee joint. A temperature probe was also placed on the skin in the area to be cooled in order to measure skin temperature in the area to be cooled.
Five human patients suffering from moderate to severe painful bilateral knee osteoarthritis were recruited for this study evaluating the impact that cooling protocol has on the magnitude of temporary pain experienced by the patient due to administration of capsaicin. […] Patients that participated in the study passed the following screening criteria and meet the patient inclusion and exclusion criteria are set forth below. As part of patient screening, patients received an intradermal injection of 100 μL (100 μg) capsaicin into the non-dominant volar forearm. To be eligible to enter the study, patients were able to tolerate the capsaicin injection. Screening patients rated the pain from capsaicin injection at 5, 10, 20, and 30 minutes after injection using a 0-10 Numerical Pain Rating Scale, where “0” equals no pain and “10” equals worst possible pain.
as §4, with “ice pack (having a surface for application to the patient, wherein said surface has a diameter of approximately six inches) is positioned” for “ice pack is positioned”, “knee joint. A temperature” for “knee joint. The ice pack was a LEADSTAR pain relief reusable cold therapy ice pack (size=6 inches). A temperature”, “knee joint. At the discretion of the physician performing the procedure, in order to reduce discomfort for the patient, the protocol authorized the physician to instill a volume of 1-2 cc of 2% w/w lidocaine (without epinephrine) into the skin and subcutaneous tissue of the knee at the site of intra-articular probe insertion. A temperature” for “knee joint. A temperature”
One the first day of the study, patients were randomized so that (i) three patients receiving cooling of the knee joint using the Breg Knee WrapOn Polar Pad and (ii) two patients will receive ice-pack cooling over the patella as set forth above. Patients were subjected to the following procedure: • Placement of intraarticular temperature probe and skin temperature probe. […]

[5] = tested on: osteoarthritic knee joint pain; assay: Patient-specific Functional Scale (PSFS) (Example 2); format: in vivo, human
Protocol: as §1, §2

[6] = tested on: osteoarthritic knee joint pain; assay: WOMAC B stiffness subscale (Example 2); format: in vivo, human; details: 1.0 mg dose; through week 16; P=0.007
Protocol: as §1, §2

[7] = tested on: human patients with chronic knee osteoarthritis; assay: Treatment-emergent adverse events, SAEs and laboratory abnormalities after single intra-articular injection (Example 2); format: in vivo; details: for All TEAEs, (%) / Arthralgia TEAE, (%) / Hepatic enzyme increased TEAE, (%) / Influenza TEAE, (%) / Joint effusion TEAE, (%) / Nasopharyngitis TEAE, (%) / Upper respiratory tract infection TEAE, (%): through 24 weeks
Protocol: Human patients experiencing osteoarthritic knee joint pain received either placebo, a 0.5 mg intra-articular injection of capsaicin into the osteoarthritic knee joint, or a 1.0 mg intra-articular injection of capsaicin into the osteoarthritic knee joint. […]
as §1, §3

[8] = Capsaicin at 0.5 mg Dose, Week 4
[9] = Capsaicin at 0.5 mg Dose, Week 8
[10] = Capsaicin at 0.5 mg Dose, Week 12
[11] = Capsaicin at 0.5 mg Dose, Week 16
[12] = Capsaicin at 0.5 mg Dose, Week 24
[13] = Capsaicin at 1.0 mg Dose, Week 4
[14] = Capsaicin at 1.0 mg Dose, Week 8
[15] = Capsaicin at 1.0 mg Dose, Week 12
[16] = Capsaicin at 1.0 mg Dose, Week 16
[17] = Capsaicin at 1.0 mg Dose, Week 24
[18] = Capsaicin 1.0 mg Dose (n = 71), listed as capsaicin
[19] = Capsaicin at Either 0.5 mg or 1.0 Dose (n = 105)
[20] = Capsaicin at Either 0.5 mg or 1.0 Dose (n = 105), listed as capsaicin

COc1cc(CNC(=O)CCCCC=CC(C)C)ccc1O [Capsaicin, N-[(4-hydroxy-3-methoxyphenyl)methyl]-8-methylnon-6-enamide]
WOMAC C score, least squares mean difference versus placebo [1]: −14.8
PGIC: proportion of patients reporting significant improvement in the index knee ([2]; 0.5 mg dose, P=0.18): 58%
PGIC: proportion of patients reporting significant improvement in the index knee ([2]; 1.0 mg dose, P=0.01): 64%
PGIC: likelihood of significant improvement compared with placebo ([2]; 1.0 mg dose, weeks 4, 8 and 12): greater than two-fold likelihood
PGIC: Odds Ratio vs Placebo [2, 8]: 1.76 (P = 0.18)
PGIC: Odds Ratio vs Placebo [2, 9]: 1.89 (P = 0.14)
PGIC: Odds Ratio vs Placebo [2, 10]: 2.75 (P = 0.03)
PGIC: Odds Ratio vs Placebo [2, 11]: 2.37 (P = 0.05)
PGIC: Odds Ratio vs Placebo [2, 12]: 1.68 (P = 0.23)
PGIC: Odds Ratio vs Placebo [2, 13]: 2.34 (P = 0.01)
PGIC: Odds Ratio vs Placebo [2, 14]: 2.50 (P = 0.008)
PGIC: Odds Ratio vs Placebo [2, 15]: 2.40 (P = 0.01)
PGIC: Odds Ratio vs Placebo [2, 16]: 1.85 (P = 0.07)
PGIC: Odds Ratio vs Placebo [2, 17]: 1.64 (P = 0.15)
Patients reporting mild procedural pain [3]: 39%
Patients reporting no procedural pain [3]: 50%
Pain due to capsaicin injection, comparison of cooling methods [4]: less when Breg Knee WrapOn Polar Pad cooling was used
PSFS: ability to perform activities versus placebo ([5]; 1.0 mg dose, weeks 4-16): significantly improved patients' ability to perform activities versus placebo
PSFS: LSMD versus Placebo [5, 8]: 0.01 (P = 0.98)
PSFS: LSMD versus Placebo [5, 9]: −0.03 (P = 0.96)
PSFS: LSMD versus Placebo [5, 10]: −0.4 (P = 0.40)
PSFS: LSMD versus Placebo [5, 11]: −0.5 (P = 0.35)
PSFS: LSMD versus Placebo [5, 12]: −0.05 (P = 0.93)
PSFS: LSMD versus Placebo [5, 13]: −1.4 (P = 0.0006)
PSFS: LSMD versus Placebo [5, 14]: −0.9 (P = 0.03)
PSFS: LSMD versus Placebo [5, 15]: −1.1 (P = 0.007)
PSFS: LSMD versus Placebo [5, 16]: −0.9 (P = 0.04)
PSFS: LSMD versus Placebo [5, 17]: −0.5 (P = 0.27)
Improvement in physical function versus placebo ([5]; single injection 1.0 mg dose, moderate to severe osteoarthritis knee pain): statistically significant improvements in physical function for 12-16 weeks
WOMAC B score, least squares mean difference versus placebo [6]: −2.1
All TEAEs, (%) ([7]; Capsaicin 0.5 mg Dose (n = 34)): (47) %
Arthralgia TEAE, (%) ([7]; Capsaicin 0.5 mg Dose (n = 34)): (8.8) %
Hepatic enzyme increased TEAE, (%) ([7]; Capsaicin 0.5 mg Dose (n = 34)): (5.9) %
Influenza TEAE, (%) ([7]; Capsaicin 0.5 mg Dose (n = 34)): (2.9) %
Joint effusion TEAE, (%) ([7]; Capsaicin 0.5 mg Dose (n = 34)): (8.8) %
Nasopharyngitis TEAE, (%) ([7]; Capsaicin 0.5 mg Dose (n = 34)): (2.9) %
Upper respiratory tract infection TEAE, (%) ([7]; Capsaicin 0.5 mg Dose (n = 34)): (5.9) %
All TEAEs, (%) ([7]; Capsaicin 0.5 mg Dose (n = 34), listed as capsaicin): 47%
All TEAEs, (%) ([7]; Capsaicin 1.0 mg Dose (n = 71)): (30) %
Arthralgia TEAE, (%) ([7]; Capsaicin 1.0 mg Dose (n = 71)): (7.0) %
Hepatic enzyme increased TEAE, (%) ([7]; Capsaicin 1.0 mg Dose (n = 71)): (1.4) %
Influenza TEAE, (%) ([7]; Capsaicin 1.0 mg Dose (n = 71)): (2.8) %
Nasopharyngitis TEAE, (%) ([7]; Capsaicin 1.0 mg Dose (n = 71)): (2.8) %
Upper respiratory tract infection TEAE, (%) ([7]; Capsaicin 1.0 mg Dose (n = 71)): (4.2) %
All TEAEs, (%) [7, 18]: 30%
Arthralgia TEAE, (%) [7, 18]: 7.0%
All TEAEs, (%) [7, 19]: (35) %
Arthralgia TEAE, (%) [7, 19]: (7.6) %
Hepatic enzyme increased TEAE, (%) [7, 19]: (2.9) %
Influenza TEAE, (%) [7, 19]: (2.9) %
Joint effusion TEAE, (%) [7, 19]: (2.9) %
Nasopharyngitis TEAE, (%) [7, 19]: (2.9) %
Upper respiratory tract infection TEAE, (%) [7, 19]: (4.8) %
Arthralgia TEAE, (%) [7, 20]: 7.6%
Upper respiratory tract infection TEAE, (%) [7, 20]: 4.8%
Laboratory abnormalities ([7]; all groups, most mild and associated with comorbidities): Few laboratory abnormalities were observed
TEAEs mild in severity, patients ([7]; capsaicin 0.5 mg dose group): 29%
TEAEs moderate in severity, patients ([7]; capsaicin 0.5 mg dose group): 18%
Serious AEs (SAEs) ([7]; capsaicin 0.5 mg dose group, not considered treatment related): One SAE (shoulder pain from osteoarthritis)
TEAEs mild in severity, patients ([7]; capsaicin 1.0 mg dose group): 20%
TEAEs moderate in severity, patients ([7]; capsaicin 1.0 mg dose group): 9.9%
Tolerability / safety profile ([7]; single injection 1.0 mg dose, up to 24 weeks): well tolerated with a safety profile generally comparable to placebo
